PubChem BioAssay (NCI)
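Values below derive from 48-hour exposures of cells grown in 96-well plates, with endpoints linearly interpolated between the two concentrations bracketing the appropriate inhibition level. GI50 is the concentration that inhibits growth by half. TGI is the concentration that stops growth completely.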

Columns and labels:
Experiment in all cases: DTP human tumour cell line panel, 48 h
SF-268 CNS = test system: SF-268 CNS
SF-539 CNS = test system: SF-539 CNS
PC-3 prostate = test system: PC-3 prostate
CCRF-CEM leukemia = test system: CCRF-CEM leukemia
SW-620 colon = test system: SW-620 colon
NCI-H460 lung = test system: NCI-H460 lung
DU-145 prostate = test system: DU-145 prostate
IGROV1 ovarian = test system: IGROV1 ovarian
A549 NSCLC = test system: A549 NSCLC
NCI-H23 lung = test system: NCI-H23 lung
A498 renal = test system: A498 renal
BT-549 breast = test system: BT-549 breast
SK-MEL-5 melanoma = test system: SK-MEL-5 melanoma
MOLT-4 leukemia = test system: MOLT-4 leukemia
SK-MEL-2 melanoma = test system: SK-MEL-2 melanoma
MALME-3M melanoma = test system: MALME-3M melanoma
NCI-H522 lung = test system: NCI-H522 lung
CAKI-1 renal = test system: CAKI-1 renal
SR leukemia = test system: SR leukemia
MDA-MB-435 = test system: MDA-MB-435
UACC-257 melanoma = test system: UACC-257 melanoma
COLO 205 colon = test system: COLO 205 colon
EKVX NSCLC = test system: EKVX NSCLC
NCI/ADR-RES ovarian = test system: NCI/ADR-RES ovarian
U251 CNS = test system: U251 CNS
SNB-19 CNS = test system: SNB-19 CNS
OVCAR-4 ovarian = test system: OVCAR-4 ovarian
HCT-116 colon = test system: HCT-116 colon
NCI-H226 lung = test system: NCI-H226 lung
786-0 renal = test system: 786-0 renal
M14 melanoma = test system: M14 melanoma
TK-10 renal = test system: TK-10 renal
LOX IMVI melanoma = test system: LOX IMVI melanoma
HOP-62 NSCLC = test system: HOP-62 NSCLC
T-47D breast = test system: T-47D breast
KM12 colon = test system: KM12 colon
MDA-MB-231 breast = test system: MDA-MB-231 breast
OVCAR-3 ovarian = test system: OVCAR-3 ovarian
UO-31 renal = test system: UO-31 renal
HCC-2998 colon = test system: HCC-2998 colon
HL-60(TB) leukemia = test system: HL-60(TB) leukemia
HT29 colon = test system: HT29 colon
SNB-75 CNS = test system: SNB-75 CNS
SF-295 CNS = test system: SF-295 CNS
SN12C renal = test system: SN12C renal
SK-MEL-28 melanoma = test system: SK-MEL-28 melanoma
OVCAR-8 ovarian = test system: OVCAR-8 ovarian
RPMI-8226 leukemia = test system: RPMI-8226 leukemia
K-562 leukemia = test system: K-562 leukemia
OVCAR-5 ovarian = test system: OVCAR-5 ovarian
HOP-92 NSCLC = test system: HOP-92 NSCLC
UACC-62 melanoma = test system: UACC-62 melanoma
RXF 393 renal = test system: RXF 393 renal
MCF7 breast = test system: MCF7 breast
SK-OV-3 ovarian = test system: SK-OV-3 ovarian
ACHN renal = test system: ACHN renal
HCT-15 colon = test system: HCT-15 colon

Compound: O=[N+]([O-])c1cc([N+](=O)[O-])c(C(F)(F)F)cc1NN=C(c1ccc(O)cc1)c1ccc(O)cc1
- GI50 (SF-268 CNS): 2.63 µM
- TGI (SF-268 CNS): 7.66 µM
- GI50 (SF-539 CNS): 2.01 µM
- TGI (SF-539 CNS): 4.45 µM
- GI50 (PC-3 prostate): 3.11 µM
- TGI (PC-3 prostate): 78 µM
- GI50 (CCRF-CEM leukemia): 3.71 µM
- TGI (CCRF-CEM leukemia): 14.4 µM
- GI50 (SW-620 colon): 3.44 µM
- TGI (SW-620 colon): 12.3 µM
- GI50 (NCI-H460 lung): 2.05 µM
- TGI (NCI-H460 lung): 5.13 µM
- GI50 (DU-145 prostate): 3.79 µM
- TGI (DU-145 prostate): 13.8 µM
- GI50 (IGROV1 ovarian): 3.79 µM
- TGI (IGROV1 ovarian): 14.4 µM
- GI50 (A549 NSCLC): 2.98 µM
- TGI (A549 NSCLC): 14.5 µM
- GI50 (NCI-H23 lung): 4.23 µM
- TGI (NCI-H23 lung): 31 µM
- GI50 (A498 renal): 3.18 µM
- TGI (A498 renal): 12.7 µM
- GI50 (BT-549 breast): 5 µM
- TGI (BT-549 breast): 42.8 µM
- GI50 (SK-MEL-5 melanoma): 1.64 µM
- TGI (SK-MEL-5 melanoma): 3 µM
- GI50 (MOLT-4 leukemia): 1.8 µM
- TGI (MOLT-4 leukemia): 5.77 µM
- GI50 (SK-MEL-2 melanoma): 2.56 µM
- TGI (SK-MEL-2 melanoma): 5.99 µM
- GI50 (MALME-3M melanoma): 4.72 µM
- TGI (MALME-3M melanoma): 35.1 µM
- GI50 (NCI-H522 lung): 3.82 µM
- TGI (NCI-H522 lung): 39.7 µM
- GI50 (CAKI-1 renal): 3.34 µM
- TGI (CAKI-1 renal): 15.3 µM
- GI50 (SR leukemia): 1.55 µM
- TGI (SR leukemia): 6.42 µM
- GI50 (MDA-MB-435): 1.92 µM
- TGI (MDA-MB-435): 4.92 µM
- GI50 (UACC-257 melanoma): 4.29 µM
- TGI (UACC-257 melanoma): 17.5 µM
- GI50 (COLO 205 colon): 2.15 µM
- TGI (COLO 205 colon): 5.33 µM
- GI50 (EKVX NSCLC): 2.75 µM
- TGI (EKVX NSCLC): 14.6 µM
- GI50 (NCI/ADR-RES ovarian): 4.44 µM
- TGI (NCI/ADR-RES ovarian): 65.4 µM
- GI50 (U251 CNS): 2.92 µM
- TGI (U251 CNS): 11.7 µM
- GI50 (SNB-19 CNS): 4.67 µM
- TGI (SNB-19 CNS): 16.6 µM
- GI50 (OVCAR-4 ovarian): 3.25 µM
- TGI (OVCAR-4 ovarian): 19.2 µM
- GI50 (HCT-116 colon): 2.67 µM
- TGI (HCT-116 colon): 11.9 µM
- GI50 (NCI-H226 lung): 4.03 µM
- TGI (NCI-H226 lung): 23.7 µM
- GI50 (786-0 renal): 2.67 µM
- TGI (786-0 renal): 9.54 µM
- GI50 (M14 melanoma): 3.18 µM
- TGI (M14 melanoma): 12.7 µM
- GI50 (TK-10 renal): 6.06 µM
- TGI (TK-10 renal): 33.4 µM
- GI50 (LOX IMVI melanoma): 1.57 µM
- TGI (LOX IMVI melanoma): 3.21 µM
- GI50 (HOP-62 NSCLC): 3.51 µM
- TGI (HOP-62 NSCLC): 35.8 µM
- GI50 (T-47D breast): 2.74 µM
- TGI (T-47D breast): 13.3 µM
- GI50 (KM12 colon): 2.7 µM
- TGI (KM12 colon): 7.85 µM
- GI50 (MDA-MB-231 breast): 3.11 µM
- TGI (MDA-MB-231 breast): 9.41 µM
- GI50 (OVCAR-3 ovarian): 2.42 µM
- TGI (OVCAR-3 ovarian): 6.11 µM
- GI50 (UO-31 renal): 3.15 µM
- TGI (UO-31 renal): 13.3 µM
- GI50 (HCC-2998 colon): 3.2 µM
- TGI (HCC-2998 colon): 8.58 µM
- GI50 (HL-60(TB) leukemia): 3.12 µM
- TGI (HL-60(TB) leukemia): 11.8 µM
- GI50 (HT29 colon): 3.33 µM
- TGI (HT29 colon): 12.1 µM
- GI50 (SNB-75 CNS): 3.53 µM
- TGI (SNB-75 CNS): 16.8 µM
- GI50 (SF-295 CNS): 1.57 µM
- TGI (SF-295 CNS): 3.81 µM
- GI50 (SN12C renal): 3.3 µM
- TGI (SN12C renal): 13.4 µM
- GI50 (SK-MEL-28 melanoma): 1.89 µM
- TGI (SK-MEL-28 melanoma): 4.47 µM
- GI50 (OVCAR-8 ovarian): 4.2 µM
- TGI (OVCAR-8 ovarian): > 100 µM
- GI50 (RPMI-8226 leukemia): 3.71 µM
- TGI (RPMI-8226 leukemia): 12.6 µM
- GI50 (K-562 leukemia): 2.42 µM
- TGI (K-562 leukemia): 15.7 µM
- GI50 (OVCAR-5 ovarian): 11 µM
- TGI (OVCAR-5 ovarian): 50 µM
- GI50 (HOP-92 NSCLC): 3.05 µM
- TGI (HOP-92 NSCLC): 18.8 µM
- GI50 (UACC-62 melanoma): 2.07 µM
- TGI (UACC-62 melanoma): 4.6 µM
- GI50 (RXF 393 renal): 2.64 µM
- TGI (RXF 393 renal): 8.47 µM
- GI50 (MCF7 breast): 2.63 µM
- TGI (MCF7 breast): 7.73 µM
- GI50 (SK-OV-3 ovarian): 4.25 µM
- TGI (SK-OV-3 ovarian): 14.6 µM
- GI50 (ACHN renal): 2.41 µM
- TGI (ACHN renal): 8.23 µM
- GI50 (HCT-15 colon): 2.84 µM
- TGI (HCT-15 colon): 11.7 µM
